Results published in paper PMC12830207, “Targeting the protein–protein interaction between the CDC37 cochaperone and client kinases by an allosteric RAF dimer breaker” (The Journal of Biological Chemistry, 2025).

Tests used:
HSP90–CDC37 complex = conditions: cited from earlier work
Source text: Unlike conventional HSP90 inhibitors, braftide preserves HSP90 activity while disrupting CDC37–client interactions, minimizing cytotoxicity and enhancing therapeutic precision. Braftide's ability to destabilize RAF through CDC37 inhibition may offer an alternative to high-dose HSP90 inhibitors, mitigating their associated side effects. […] While most HSP90–CDC37 inhibitors focus on HSP90 ATP-competitive inhibition ([6]), emerging ...

[1] = tested on: MAPK proteins (BRAF, CRAF, MEK, pMEK, ERK, pERK); assay: Immunoblot of MAPK proteins in HCT116 cells; assay type: cell-based
Experimental: (§1) Western blot band densities were quantified with ImageJ software (National Institutes of Health) and normalized to the indicated loading control. Statistical significance was determined through one-/two-way ANOVA, where indicated, followed by Tukey's honest significant difference post hoc test with corresponding p values (∗p < 0.05, ∗∗p < 0.002, ∗∗∗p < 0.0002, and ∗∗∗∗p < 0.0001). All graph bars represent the mean ± SD with individual data points per biological replicate with corresponding p values.

ERK = conditions: cited from earlier work
Source text: The RAF kinase family, comprising ARAF, BRAF, and CRAF, is one of the well-studied clients of CDC37. RAF kinase is a core component of the mitogen-activated protein kinase (MAPK) (RAS–RAF–mitogen-activated protein kinase kinase [MEK]–extracellular signal–regulated kinase [ERK]) pathway, governing cell proliferation, survival, senescence, differentiation, and migration ([18]). […] While ATP-competitive inhibitors like vemurafenib, dabrafenib, and encorafenib ...

AKT1 = assay: Photo-crosslinking and streptavidin pull-down, AKT1; assay type: binding, human (HEK293); conditions: 10 μM peptide, HEK293 lysate, 4 h, 4 °C, UV 1 h, streptavidin
Experimental: (§2) Transfected HEK293 cells were treated with the indicated treatments and harvested in cold PBS. The cell pellets were lysed in modified RIPA buffer (50 mM Hepes [pH 7.4], 150 mM sodium chloride, 0.1% NP-40 [IGEPAL630], 1 mM EDTA, 5% glycerol, 1 mM PMSF, 20 mM β-glycerophosphate, 2.5 mM sodium pyrophosphate, and 1 protease inhibitor tablet) and incubated with rotation for 2 h, 4 °C. Cell lysates were then incubated with resin (FLAG-M2 magnetic, Sigma [M8823] or streptavidin, Pierce [88816]) for 2 h to bind the tagged BRAF–CRAF or BTN–braftide-crosslinked proteins. The samples were washed five times in a modified RIPA buffer and quenched in loading dye (BTN IP elution was supplemented with 20 mM biotin in loading dye) and heated at 95 °C, 5 min. Samples were analyzed via immunoblot.
(§3) HEK293 cells were cotransfected with CDC37 (FLAG-tagged) and BRAF (V5-tagged). Cells were harvested in cold PBS, and pellets were lysed in modified RIPA buffer with rotation for 2 h, 4 °C. Cell lysate (1 mg) was incubated with 0 or 10 μM BTN–braftide/JAK2, with rotation for 4 h, at 4 °C. Samples were then exposed to […] UV light for 1 h over ice. After UV treatment, samples were incubated with Pierce Streptavidin magnetic beads (catalog no.: 88816) for 17 h at 4 °C, to bind BTN–braftide. […] Samples were analyzed via immunoblot.

HSP90 [2] = assay: Photo-crosslinking and streptavidin pull-down, HSP90; assay type: binding, human (HEK293); conditions: 10 μM peptide, HEK293 lysate, 4 h, 4 °C, UV 1 h, streptavidin
Experimental: as §2, §3

CRAF = assay: Photo-crosslinking and streptavidin pull-down, endogenous CRAF; assay type: binding, human (HEK293); conditions: 10 μM peptide, HEK293 lysate, 4 h, 4 °C, UV 1 h, streptavidin
Experimental: as §2, §3

CDC37 = assay: Photo-crosslinking and streptavidin pull-down, CDC37; assay type: binding, human (HEK293); conditions: 10 μM peptide, lysate of HEK293 with CDC37-FLAG/BRAF-V5, 4 h, 4 °C, UV 1 h, streptavidin
Experimental: as §2, §3

BRAF = assay: Photo-crosslinking and streptavidin pull-down, BRAF; assay type: binding, human (HEK293); conditions: 10 μM peptide, lysate of HEK293 with CDC37-FLAG/BRAF-V5, 4 h, 4 °C, UV 1 h, streptavidin
Experimental: as §2, §3

MAPK proteins / pERK = assay: Immunoblot of protein degradation and pERK with control peptide in HEK293; assay type: cell-based, human (HEK293); conditions: HEK293 cotransfected with CDC37 and RAF (Fig. S2A)
Experimental: as §1

BRAF–CDC37 interaction = assay: NanoBiT luminescence CDC37–RAF interaction reporter assay, BRAF^SmBiT–CDC37^LgBiT; assay type: cell-based, human (HEK293); conditions: HEK293, 10 µM vemurafenib, 4 hrs, Fig. S8
Source text: NanoBiT cytomegalovirus MCS BiBiT vector, which contains a BRAF N terminal fused with LgBiT and CRAF N terminal fused with SmBiT, was purchased from Promega. CDC37 LgBiT and CRAF SmBiT was generated using the standard Gibson Assembly (NEB HiFi Assembly) using NanoBiT BiBiT as the vector and following primers: 5′ […] 3′, 5′ […] 3′, 5′ […] 3′, 5′ […] 3′, and CDC37 LgBiT and BRAF SmBiT was generated using the standard Gibson Assembly using NanoBiT BiBiT as the vector and following primers: 5′ […] 3′, 5′ […] 3′, 5′ […] 3′, 5′ […] 3′. Primers were designed to introduce H20A, N22A, I23A triple mutation within the CDC37 FLAG tag and for NanoBiT construct CDC37(HNI/A) LgBit and BRAF SmBiT. Primers were designed to introduce the desired substitutions. The forward primer sequence was 5′ gccgcc[…] 3′, and the reverse primer sequence was 5′ gggggc[…] 3′. Site-directed mutagenesis was carried out using the Q5 Site-Directed Mutagenesis Kit (NEB; E0554) following the manufacturer's protocol.
Twenty-four hours post-transfection, cells were trypsinized, pelleted, resuspended in OptiMEM + 4% fetal bovine serum, and reseeded onto a 96-well plate at 5(10)^4 cells per well and then incubated at 37 °C overnight. Cells were pretreated with 1 μM bortezomib for 5 h and then braftide for 4 h at 0 and 25 μM. After treatment, 10 μM furimazine substrate was added to each well, and luminescence readings were taken at 470 to 480 nm using a CLARIOstar plate reader. Statistical significance was determined through a paired t test where indicated, followed by Tukey's honest significant difference post hoc test with corresponding p values (∗p < 0.05, ∗∗p < 0.01, and ∗∗∗p < 0.001). All graph bars represent the mean ± SD with individual data points per biological replicate with corresponding p values.

HSP90 [3] = conditions: cited from earlier work
Source text: However, this approach often requires high dosages, making cells more susceptible to thermal damage and inducing HSR1 expression ([10]). […] ATP competitive inhibitors for RAF kinase encou ...

HCT116 cells = assay: WST-1 cell viability assay, HCT116; assay type: cell-based; conditions: HCT116, no braftide, 24 h, WST-1; read-out: EC50 of 17-AAG alone, HCT116
Experimental: HCT116 and WM3629 cells were seeded onto polylysine-coated, clear-bottomed, 96-well plates at 15(10)^3 cells per well and allowed to incubate for 24 h. Cells were treated with braftide and 17-AAG mixtures at indicated concentrations for 24 h (37 °C). The WST-1 cell viability assay was carried out according to the manufacturer's protocols (Roche; 11644807001) for 4 h, and absorbance readings were taken at 450 nM in a CLARIOstar plate reader. For the dose–response curves of braftide and 17-AAG, the data were fit to the 4-parameter logistic equation (dose–response fitting equation) in GraphPad Prism (Dotmatics): y=A1+(A2−A1)÷(1+10^(LOGx0−x)p)
Error bars are indicative of the SEM of each point.

[4] = target: HSP90 (endogenous, HEK293), P07900; assay: co-immunoprecipitation (IP: FLAG), immunoblot band quantification; conditions: chain shown with the change, representative blot

**Q.** Which “dissociation of HSP90–CDC37 complex” value (HSP90–CDC37 complex) does the source give for `CC1=C[C@H](C)C[C@H](C)[C@H](Cc2cnco2)OC(=O)/C(C)=C\[C@H](C)C[C@H](C)[C@H](Cc2cnco2)OC1=O` [conglobatin A] here?
**A.** allosterically dissociate the HSP90–CDC37 complex

**Q.** For “GRKKRRQRRRPQ-miniPEG-SLQHDNIVKY [TAT–JAK2, negative control peptide derived from the αC helix–β4 loop of the JAK2 kinase, reference compound]”, which “MAPK proteins with control peptide” value ([1]; HCT116, 4 h, Fig. S2A) is on record?
**A.** MAPK proteins are unaffected by control peptide

**Q.** With `COC(=O)N[C@@H](C)CNc1nccc(-c2cn(C(C)C)nc2-c2cc(Cl)cc(NS(C)(=O)=O)c2F)n1` [encorafenib] as the molecule, how does the “paradoxical activation of downstream ERK” value (ERK) read?
**A.** can lead to paradoxical activation of downstream ERK under certain conditions

**Q.** With “GRKKRRQRRRPQ-miniPEG-THHVNILLFM [R/H peptide]” as the molecule, how does the “protein degradation of BRAF, CRAF, MEK, and ERK” value ([1]; HCT116, braftide^R2H, 4 h, immunoblot) read?
**A.** failed to induce protein degradation of BRAF, CRAF, MEK, and ERK

**Q.** And the “impact on MAPK signaling” value ([1]; HCT116, braftide^R2H, 4 h, pMEK and pERK immunoblot)?
**A.** had no impact on MAPK signaling in HCT116 cells

**Q.** For `C[C@@H]1O[C@@H](O[C@H]2[C@H](OC(=O)[C@]34CCC(C)(C)C[C@H]3C3=CC[C@@H]5[C@@]6(C)C[C@H](O)[C@H](O[C@@H]7O[C@H](CO)[C@@H](O)[C@H](O)[C@H]7O)C(CO)(CO)[C@@H]6CC[C@@]5(C)[C@]3(C)C[C@H]4O)OC[C@H](O)[C@@H]2O)[C@H](O)[C@H](O)[C@H]1O[C@@H]1OC[C@@H](O)[C@H](O[C@@H]2OC[C@](O)(CO)[C@H]2O)[C@H]1O` [platycodin D], which “dissociation of HSP90–CDC37 complex” value (HSP90–CDC37 complex) is on record?
**A.** allosterically dissociate the HSP90–CDC37 complex

**Q.** Which results are given for “Biotin-GRKKRRQRRRPQ-miniPEG-TRHVNILxFM [BTN–braftide]”?
**A.** co-immunoprecipitation of AKT1 with biotinylated peptide (AKT1): Neither AKT1 nor HSP90 was pulled down in this assay; co-immunoprecipitation of HSP90 with biotinylated peptide (HSP90 [2]): Neither AKT1 nor HSP90 was pulled down in this assay; co-immunoprecipitation of endogenous CRAF with biotinylated peptide (CRAF): coimmunoprecipitated CDC37, BRAF, and endogenous CRAF; co-immunoprecipitation of CDC37 with biotinylated peptide (CDC37): coimmunoprecipitated CDC37, BRAF, and endogenous CRAF; co-immunoprecipitation of BRAF with biotinylated peptide (BRAF): coimmunoprecipitated CDC37, BRAF, and endogenous CRAF

**Q.** Which results are given for “Biotin-GRKKRRQRRRPQ-miniPEG-SxQHDNIVKY [BTN–JAK2, biotinylated control peptide derived from the αC helix–β4 loop of the JAK2 kinase, same TAT-miniPEG fragment, reference compound]”?
**A.** co-immunoprecipitation of HSP90 with biotinylated peptide (HSP90 [2]): did not coimmunoprecipitate BRAF, CDC37, or HSP90 under the same conditions; co-immunoprecipitation of CDC37 with biotinylated peptide (CDC37): did not coimmunoprecipitate BRAF, CDC37, or HSP90 under the same conditions; co-immunoprecipitation of BRAF with biotinylated peptide (BRAF): did not coimmunoprecipitate BRAF, CDC37, or HSP90 under the same conditions; protein degradation and pERK levels with control peptide (MAPK proteins / pERK): did not induce protein degradation or reduce pERK levels

**Q.** Which “NanoBiT BRAF–CDC37 interaction, vemurafenib” value (BRAF–CDC37 interaction) does the source give for `CCCS(=O)(=O)Nc1ccc(F)c(C(=O)c2c[nH]c3ncc(-c4ccc(Cl)cc4)cc23)c1F` [Vemurafenib, reference compound] here?
**A.** disrupted the interaction between BRAF and CDC37 in the NanoBiT assay

**Q.** And the “paradoxical activation of downstream ERK” value (ERK)?
**A.** can lead to paradoxical activation of downstream ERK under certain conditions

**Q.** Which “paradoxical activation of downstream ERK” value (ERK) does the source give for `CC(C)(C)c1nc(-c2cccc(NS(=O)(=O)c3c(F)cccc3F)c2F)c(-c2ccnc(N)n2)s1` [dabrafenib] here?
**A.** can lead to paradoxical activation of downstream ERK under certain conditions

**Q.** Which results are given for `C=CCNC1=C2C[C@@H](C)C[C@H](OC)[C@H](O)[C@@H](C)/C=C(\C)[C@H](OC(N)=O)[C@@H](OC)/C=C\C=C(/C)C(=O)NC(=CC1=O)C2=O` [17-AAG, 17-N-allylamino-17-demethoxygeldanamycin, reference compound]?
**A.** CRAF degradation and MAPK signaling, combination ([1]; HCT116, 500 nM 17-AAG + 500 nM braftide, immunoblot, n = 3): significant degradation of CRAF kinase and downregulation of MAPK signaling; inhibition by monotherapy at 500 nM ([1]; HCT116, 500 nM single agent, immunoblot): Neither 17-AAG nor braftide monotherapy exhibited obvious inhibition; concentration at which CRAF kinase level is depleted, 17-AAG monotherapy ([1]; HCT116, 17-AAG alone, 16 h, immunoblot): 2 µM; cytotoxicity in clinical trials (HSP90 [3]): its clinical trials faced challenges because of high cytotoxicity; EC50 (HCT116 cells): > 5 µM

B1: CDC37-myc-FLAG, Q16543 H20A; N22A; I23A (protein)
chain: MVDYSVWDHIEVSDDEDETAPAADTASLFRWRHQARVERMEQFQKEKEELDRGCRECKRKVAECQRKLKELEVAEGGKAELERLQAEAQQLRKEERSWEQKLEEMRKKEKSMPWNVDTLSKDGFSKSMVNTKPEKTEEDSEEVREQKHKTFVEKYEKQIKHFGMLRRWDDSQKYLSDNVHLVCEETANYLVIWCIDLEVEEKCALMEQVAHQTIVMQFILELAKSLKVDPRACFRQFFTKIKTADRQYMEGFNDELEAFKERVRGRAKLRIEKAMKEYEEEERKKRLGPGGLDPVEVYESLPEELQKCFDVKDVQMLQDAISKMDPTDAKYHMQRCIDSGLWVPNSKASEAKEGEEAGPGDPLLEAVPKTGDEKDVSV
**Q.** With B1 as the molecule, how does the ratio to parent ([4]; HEK293 cells coexpressing BRAF-V5) read?
**A.** 1.01

**Q.** And the ratio to parent ([4]; HEK293 cells coexpressing CRAF-HA)?
**A.** 0.91
